Patent publication US20250296959A1, “B7-H3 TARGETING PEPTIDES AND CONSTRUCTS THEREOF” (Mariana Oncology Inc., priority 2024, published 2025)
Like-named read-outs stand apart in the source and are kept apart here. Starred links: 1 amine or outer side, 2 acyl side, 3 side chain; linkers in the order of their positions; H or OH if unused. Positions of bridges follow the written chain, without caps; N, C: chain ends. Non-standard residues stand in square brackets, D forms with d. Residues, ends and D or L forms follow the SMILES beside them. Groups on a side chain read outwards from the residue. *: point of attachment. X4 = O=C(O)CN1CCN(CC(=O)O)CCN([C@H](CCC(=O)*)C(=O)O)CCN(CC(=O)O)CC1; Ala(piperidin-4-yl) = O=C([C@H](CC1CCN([*:3])CC1)N[*:1])[*:2]; Phe(3-CH2NH2) = O=C([C@H](Cc1cccc(CN[*:3])c1)N[*:1])[*:2]; DOTA = O=C(O)CN1CCN(CC(=O)O)CCN(CC(=O)*)CCN(CC(=O)O)CC1; Trp(5-F) = N[C@@H](Cc1c[nH]c2ccc(F)cc12)C(=O)O; γGlu = O=C(O)[C@H](CCC(=O)[*:2])N[*:1]; Ala(4-THP) = N[C@@H](CC1CCOCC1)C(=O)O; Val(3-OH) = CC(C)(O)[C@H](N)C(=O)O; hCha = N[C@@H](CCC1CCCCC1)C(=O)O; Aad = N[C@@H](CCCC(=O)O)C(=O)O; PEG4 = NCCOCCOCCOCCOCCC(=O)O; Tle = CC(C)(C)[C@H](N)C(=O)O; hLeu = CC(C)CC[C@H](N)C(=O)O

Assays:
human 4lg B7-H3 = biological target: T1, human 4lg B7-H3 (Homo sapiens, UniProt Q5ZPR3); assay: Affinity determination by surface plasmon resonance (SPR) to 4Ig B7-H3; details: 4Ig B7-H3
T1 sequence (Q5ZPR3 29-534): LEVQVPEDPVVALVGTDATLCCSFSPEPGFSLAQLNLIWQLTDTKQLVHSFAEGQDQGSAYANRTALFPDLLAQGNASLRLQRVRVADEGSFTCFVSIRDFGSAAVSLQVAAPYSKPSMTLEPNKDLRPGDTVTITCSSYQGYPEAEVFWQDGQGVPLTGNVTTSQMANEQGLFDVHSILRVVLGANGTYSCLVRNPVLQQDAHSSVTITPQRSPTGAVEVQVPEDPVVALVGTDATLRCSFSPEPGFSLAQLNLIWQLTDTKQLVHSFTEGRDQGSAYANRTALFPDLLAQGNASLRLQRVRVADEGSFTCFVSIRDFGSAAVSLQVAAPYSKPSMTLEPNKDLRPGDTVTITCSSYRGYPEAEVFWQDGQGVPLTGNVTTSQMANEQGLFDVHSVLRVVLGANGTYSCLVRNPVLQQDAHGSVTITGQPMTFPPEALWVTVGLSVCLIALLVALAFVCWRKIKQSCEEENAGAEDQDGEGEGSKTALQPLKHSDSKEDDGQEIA

Calu-6 cell line [1] = assay: Net internalization of [177Lu]Lu-labeled peptide in Calu-6 cells; format: cell-based, Human; details: 1 hour, 37° C., glycine pH 2.5 acid wash
Description: (§1) [^177Lu]LuCl3 was received from venders in HCl solution. For every mCi of [^177Lu]LuCl3 added to the reaction vial (1.5 mL Eppendorf vial), ammonium acetate buffer (0.2 M, pH 4.9, 100 μL, containing 1% w/v ascorbic acid and 6% v/v ethanol) and peptide conjugate (1 nmol) was added. The pH of the solution was determined to be approximately 5 by using pH strips. The reaction vial was incubated at 80° C., 700 RPM for 17-20 minutes. A sample from the reaction was analyzed by RP-HPLC using an Agilent Infinity II 1260 HPLC to determine reaction completion and radiochemical purity. HPLC conditions: Waters XBridge BEH C18 Column, 130 Å, 3.5 μm, 4.6 mm×250 mm; mobile phase: Solvent A=water (with 0.1% formic acid), solvent B=acetonitrile (with 0.1% formic acid). Gradients: 25-45% B in 10 minutes, 45-65% B in 12 minutes, 65-90% in 6 minutes at a flow rate of 0.5 mL/minute. Required amounts of the product were formulated in 1% PBSA for cell studies.
(§2) The study was conducted using Calu-6 cell line (Table 8)
(§3) Adherent cell studies: The cells were cultured in appropriate culture media (20 mL) in tissue culture treated T150 flasks at 37° C. and 5% CO2. Adherent cells were detached (60-70% confluent) using 5 mL Versene at 37° C. for 3 minutes. After confirming the viability using countess and count of detached cells using Trypan blue, the cells were centrifuged at 4° C. for 5 minutes (1,000 revolutions per minute). The cell pellet obtained was washed once with PBS and resuspended in 1% PBSA to obtain the desired cell concentration (5 million cells/mL).
Net internalization: The resuspended cells in 300 μl of 1% PBSA and counted in the gamma counter as “bound fraction” were collected in 1.5 mL Eppendorf tube and pelleted. The pelleted cells were incubated with 300 μl of 50 mM Glycine pH=2.5 for 3 minutes and then pelleted discarding the supernatant. This process was repeated one more time. The pelleted cells were washed with 300 μl of cold 1% PBSA and then resuspended in 300 μl 0.3 M NaOH. This was counted in the gamma counter as “internalized fraction”.
(§4) Calu-6 Cells are Human-Derived, Non-Engineered Lung Cancer Cell that Express B7-H3.

Calu-6 cell line [2] = assay: Cell associated (bound) fraction of [177Lu]Lu-labeled peptide in Calu-6 cells; format: cell-based, Human; details: 1 hour, 37° C.
Description: as §1, §2, §3
Cell associated fraction: Cells were incubated with 300 μL (0.8 μCi) of the incubation buffer (containing radiolabeled peptide [^177Lu]Lu-test peptide) for 1 hour at 37 C (Table 9). Post incubation, the cells were pelleted and washed 2 times using cold PBS+1% BSA. The supernatant and washes were combined and counted together as “unbound fraction” in a gamma counter. The cells were then resuspended in 300 μL of 1% PBS+1% BSA and counted in the gamma counter as cell associated fraction (or bound fraction).
as §4

[3] = read-out: SPR KD—37° C., 37° C. flow cell temperature

Structure (SMILES)	Kd (human 4lg B7-H3; SPR KD—37° C., 37° C. flow cell temperature) [nM]	% net internalization (Calu-6 cell line [1])	% cell associated fraction (Calu-6 cell line [2])	Kd (human 4lg B7-H3; [3]) [nM]	Kd (human 4lg B7-H3; SPR KD—25° C., 25° C. flow cell temperature) [nM]
CC(=O)N[C@@H](CCC1CCCCC1)C(=O)N[C@@H](Cc1ccc(O)cc1)C(=O)N[C@H]1CSSC[C@@H](C(=O)N[C@@H](Cc2c[nH]c3ccc(F)cc23)C(=O)N[C@@H](Cc2ccccc2)C(=O)N[C@H](C(=O)N[C@H](CCCCNC(=O)CN2CCN(CC(=O)O)CCN(CC(=O)O)CCN(CC(=O)O)CC2)C(=O)O)C(C)(C)O)NC(=O)[C@H](Cc2ccc(O)cc2)NC(=O)[C@H](C(C)C)NC(=O)[C@H](CC(=O)O)NC(=O)[C@H](CC2CCOCC2)NC(=O)[C@H](CCCCN)NC(=O)CNC(=O)[C@H](C(C)(C)C)NC1=O [compound 368, Ac-hCha-Y-C-Tbg-G-K-ThpA-D-V-Y-C-5FW-F-hydroxyVal-dLys(DOTA)-COOH] (Ac-[hCha]YC[Tle]GK[Ala(4-THP)]DVYC[Trp(5-F)]F[Val(3-OH)][dK](DOTA)-OH; disulfide 3-11)	< 1	A (%≤25)	B (25<%≤50)		
CC(=O)N[C@@H](CCC(C)C)C(=O)N[C@@H](Cc1ccc(O)cc1)C(=O)N[C@H]1CSSC[C@@H](C(=O)N[C@@H](Cc2c[nH]c3ccc(F)cc23)C(=O)N[C@@H](Cc2ccccc2)C(=O)N[C@H](C(=O)N[C@H](CCCCNC(=O)CC[C@H](C(=O)O)N2CCN(CC(=O)O)CCN(CC(=O)O)CCN(CC(=O)O)CC2)C(=O)O)C(C)(C)O)NC(=O)[C@H](Cc2ccc(O)cc2)NC(=O)[C@H](C(C)C)NC(=O)[C@H](CC(=O)O)NC(=O)[C@H](CC2CCOCC2)NC(=O)[C@H](CC2CCNCC2)NC(=O)CNC(=O)[C@H](C(C)(C)C)NC1=O [compound 438, Ac-hLeu-Y-C-Tbg-G-PipAla-ThpA-D-V-Y-C-5FW-F-hydroxyVal-dLys(R-DOTAGA)-COOH] (Ac-[hLeu]YC[Tle]G[Ala(piperidin-4-yl)][Ala(4-THP)]DVYC[Trp(5-F)]F[Val(3-OH)][dK](X4)-OH; disulfide 3-11)		A (%≤25)	B (25<%≤50)	< 1	
CC(=O)N[C@@H](CCC(C)C)C(=O)N[C@@H](Cc1ccc(O)cc1)C(=O)N[C@H]1CSSC[C@@H](C(=O)N[C@@H](Cc2c[nH]c3ccc(F)cc23)C(=O)N[C@@H](Cc2ccccc2)C(=O)N[C@H](C(=O)N[C@H](CCCCNC(=O)CC[C@H](NC(=O)CN2CCN(CC(=O)O)CCN(CC(=O)O)CCN(CC(=O)O)CC2)C(=O)O)C(=O)O)C(C)(C)O)NC(=O)[C@H](Cc2ccc(O)cc2)NC(=O)[C@H](C(C)C)NC(=O)[C@H](CC(=O)O)NC(=O)[C@H](CC2CCOCC2)NC(=O)[C@H](CC2CCNCC2)NC(=O)CNC(=O)[C@H](C(C)(C)C)NC1=O [compound 440, Ac-hLeu-Y-C-Tbg-G-PipAla-ThpA-D-V-Y-C-5FW-F-hydroxyVal-dLys(gGlu-DOTA)-COOH] (Ac-[hLeu]YC[Tle]G[Ala(piperidin-4-yl)][Ala(4-THP)]DVYC[Trp(5-F)]F[Val(3-OH)][dK]([γGlu-DOTA])-OH; disulfide 3-11)		A (%≤25)	B (25<%≤50)	< 1	
CC(=O)N[C@@H](CCC(C)C)C(=O)N[C@@H](Cc1ccc(O)cc1)C(=O)N[C@H]1CSSC[C@@H](C(=O)N[C@@H](Cc2c[nH]c3ccc(F)cc23)C(=O)N[C@@H](Cc2ccccc2)C(=O)N[C@H](C(=O)N[C@H](CCCCNC(=O)[C@@H](CCC(=O)O)NC(=O)CN2CCN(CC(=O)O)CCN(CC(=O)O)CCN(CC(=O)O)CC2)C(=O)O)C(C)(C)O)NC(=O)[C@H](Cc2ccc(O)cc2)NC(=O)[C@H](C(C)C)NC(=O)[C@H](CC(=O)O)NC(=O)[C@H](CC2CCOCC2)NC(=O)[C@H](CC2CCNCC2)NC(=O)CNC(=O)[C@H](C(C)(C)C)NC1=O [compound 429, Ac-hLeu-Y-C-Tbg-G-PipAla-ThpA-D-V-Y-C-5FW-F-hydroxyVal-dLys(dGlu-DOTA)-COOH] (Ac-[hLeu]YC[Tle]G[Ala(piperidin-4-yl)][Ala(4-THP)]DVYC[Trp(5-F)]F[Val(3-OH)][dK]([dE-DOTA])-OH; disulfide 3-11)		A (%≤25)	B (25<%≤50)	< 1	
CC(=O)N[C@@H](CCC(C)C)C(=O)N[C@@H](Cc1ccc(O)cc1)C(=O)N[C@H]1CSSC[C@@H](C(=O)N[C@@H](Cc2c[nH]c3ccc(F)cc23)C(=O)N[C@@H](Cc2ccccc2)C(=O)N[C@H](C(=O)N[C@H](CCCCNC(=O)[C@H](CCCC(=O)O)NC(=O)CN2CCN(CC(=O)O)CCN(CC(=O)O)CCN(CC(=O)O)CC2)C(=O)O)C(C)(C)O)NC(=O)[C@H](Cc2ccc(O)cc2)NC(=O)[C@H](C(C)C)NC(=O)[C@H](CC(=O)O)NC(=O)[C@H](CC2CCOCC2)NC(=O)[C@H](CC2CCNCC2)NC(=O)CNC(=O)[C@H](C(C)(C)C)NC1=O [compound 464, Ac-hLeu-Y-C-Tbg-G-PipAla-ThpA-D-V-Y-C-5FW-F-hydroxyVal-dLys(hGlu-DOTA)-COOH] (Ac-[hLeu]YC[Tle]G[Ala(piperidin-4-yl)][Ala(4-THP)]DVYC[Trp(5-F)]F[Val(3-OH)][dK]([Aad-DOTA])-OH; disulfide 3-11)		A (%≤25)	C (%>50)	< 1	
CC(=O)N[C@@H](CCC(C)C)C(=O)N[C@@H](Cc1ccc(O)cc1)C(=O)N[C@H]1CSSC[C@@H](C(=O)N[C@@H](Cc2c[nH]c3ccc(F)cc23)C(=O)N[C@@H](Cc2ccccc2)C(=O)N[C@H](C(=O)N[C@H](CCC(=O)O)C(N)=O)C(C)(C)O)NC(=O)[C@H](Cc2ccc(O)cc2)NC(=O)[C@H](C(C)C)NC(=O)[C@H](CC(=O)O)NC(=O)[C@H](CC2CCN(C(=O)CCOCCOCCOCCOCCNC(=O)CN3CCN(CC(=O)O)CCN(CC(=O)O)CCN(CC(=O)O)CC3)CC2)NC(=O)[C@H](CC2CCNCC2)NC(=O)CNC(=O)[C@H](C(C)(C)C)NC1=O [compound 444, Ac-hLeu-Y-C-Tbg-G-PipAla-Pip(PEG4-DOTA)Ala-D-V-Y-C-5FW-F-hydroxyVal-dGlu-CONH2] (Ac-[hLeu]YC[Tle]G[Ala(piperidin-4-yl)][Ala(piperidin-4-yl)]([PEG4-DOTA])DVYC[Trp(5-F)]F[Val(3-OH)][dE]-NH2; disulfide 3-11)		A (%≤25)	B (25<%≤50)	< 1	
CC(=O)N[C@@H](CCC(C)C)C(=O)N[C@@H](Cc1ccc(O)cc1)C(=O)N[C@H]1CSSC[C@@H](C(=O)N[C@@H](Cc2c[nH]c3ccc(F)cc23)C(=O)N[C@@H](Cc2ccccc2)C(=O)N[C@H](C(N)=O)[C@@H](C)O)NC(=O)[C@H](Cc2ccc(O)cc2)NC(=O)[C@H](C(C)C)NC(=O)[C@H](CC(=O)O)NC(=O)[C@H](Cc2cccc(CNC(=O)CN3CCN(CC(=O)O)CCN(CC(=O)O)CCN(CC(=O)O)CC3)c2)NC(=O)[C@H](CCCCN)NC(=O)CNC(=O)[C@H](C(C)C)NC1=O [compound 182, Ac-hLeu-Y-C-V-G-K-MAF(DOTA)-D-V-Y-C-5FW-F-Thr-CONH2] (Ac-[hLeu]YCVGK[Phe(3-CH2NH2)](DOTA)DVYC[Trp(5-F)]FT-NH2; disulfide 3-11)		C (%>50)	C (%>50)		< 1
